# Reference: US8715673B2 (priority 2011, dated 2014)
# Where “and” joins values, the source holds several entries; their conditions need not be identical. Identical values can stand only once. Like-named read-outs stand apart in the source and are kept apart here.
# How the values were obtained:
# Settings in all cases: in vivo
# [1] = system: S. aureus strain USA300 (LAC)
# [2] = system: S. aureus strain USA300 (LAC); remark: listed apart in the source
# [3] = system: S. aureus strain USA300 (LAC); remark: listed apart in the source
# [4] = system: Staphylococcus aureus strain USA300 (LAC); design: species or system S. aureus
# [5] = system: Staphylococcus aureus strain USA300 (LAC); design: species or system S. aureus; remark: listed apart in the source
# [6] = system: S. aureus strain USA300 (LAC); remark: listed apart in the source
# [7] = system: S. aureus strain USA300 (LAC); remark: listed apart in the source
# [8] = system: S. aureus strain USA300 (LAC); remark: listed apart in the source
structure (smiles),measurement,setting,value
CC(=O)NC[C@H]1CN(c2ccc(N3CCOCC3)c(F)c2)C(=O)O1 [linezolid],"CFU/g Kidney Tissue (log10), individual mouse",[1],0.00 and 5.95 and 3.77 and 3.21
same,"CFU/g Kidney Tissue (log10), mean CFU/g",[1],3.23
same,"CFU/g Lung Tissue (log10), individual mouse",[1],3.13 and 7.64 and 4.36 and 3.55
same,"CFU/g Lung Tissue (log10), mean CFU/g",[1],4.67
same,Cumulative survival (%) Day 1,[2],100%
same,Cumulative survival (%) Day 7,[2],70%
same,cumulative survival at day 7,[2],70%
same,survival rate at day 14 (study end),[2],70%
same,"Cumulative survival (%) day 0, 2 h",[3],100%
same,"Cumulative survival (%) day 0, 4 h",[3],100%
same,"Cumulative survival (%) day 0, 8 h",[3],100%
same,"Cumulative survival (%) day 0, 12 h",[3],100%
same,Cumulative survival (%) day 1,[3],100% and 60%
same,Average area of abscess (mm^2) Day 0,[4],0.0 mm^2
same,Average area of abscess (mm^2) Day 1,[4],0.0 mm^2
same,Average area of abscess (mm^2) Day 2,[4],6.6 mm^2
same,Average area of abscess (mm^2) Day 3,[4],4.9 mm^2
same,Average area of abscess (mm^2) Day 4,[4],3.7 mm^2
same,"mean area of skin abscess, day 1",[4],about 0.0 mm^2
same,"mean area of skin abscess, day 2",[4],~6.6 mm^2
same,"mean area of skin abscess, day 3",[4],~4.9 mm^2
same,"mean area of skin abscess, day 4",[4],~3.7 mm^2
same,"Day 4 CFU/g tissue (log10), Mean CFU/g",[5],5.2 CFU/g tissue (log10)
same,"Day 4 CFU/g tissue (log10), individual mice",[5],5.7 CFU/g tissue (log10) and 5.2 CFU/g tissue (log10) and 6.0 CFU/g tissue (log10) and 4.5 CFU/g tissue (log10) and 4.8 CFU/g tissue (log10) and 5.1 CFU/g tissue (log10) and 5.4 CFU/g tissue (log10) and 4.9 CFU/g tissue (log10)
same,"Day 4 CFU/g tissue (log10), median",[5],5.1 CFU/g tissue (log10)
same,"bacterial burden in the infected area, average",[5],about 5.2 log 10 CFU/g
same,Cumulative survival (%) Day 1,[6],100%
same,Cumulative survival (%) Day 7,[6],70%
same,cumulative survival at day 7,[6],70%
same,survival rate at study end,[6],60%
same,Cumulative survival (%) Day 0,[7],100%
same,Cumulative survival (%) Day 1,[7],100%
same,Cumulative survival (%) Day 2,[7],60% and 100%
same,Cumulative survival day 1,[7],100%
same,Cumulative survival day 2,[7],60%
same,Cumulative survival day 3,[7],20%
same,Cumulative survival day 4,[7],20%
same,Cumulative survival day 5,[7],20%
same,Median survival time,[7],4 days and 2.5 days
same,survival rate,[7],90%
same,Cumulative survival (%) Day 0,[8],100%
same,Cumulative survival (%) Day 1,[8],100%
same,Cumulative survival (%) Study end,[8],40%
